Results on 9 molecules are retold here after ChEMBL document CHEMBL3132782, “Identification of orally bioavailable small-molecule inhibitors of hematopoietic prostaglandin D2 synthase using X-ray fragment based drug discovery” (Medchemcomm, 2014).

Values after ≈ are worked out from the molar mass of the structure shown. Active and inactive are the calls of the source. Some results are limits rather than exact numbers.

For data set [1], the target named is T1, Hematopoietic prostaglandin D synthase (Homo sapiens, UniProt O60760). The data set is described as follows: Inhibition of human hematopoietic prostaglandin D2 synthase by fluorescence polarisation assay.
The nature of data set [2]: Aqueous solubility in fed simulated intestinal fluid at pH 6.5. The class given is physicochemical.
A short description of data set [3]: Aqueous solubility in simulated gastric fluid at pH 1.6. The class given is physicochemical.
The nature of data set [4]: Aqueous solubility in fasted simulated intestinal fluid at pH 6.5. Format: physicochemical.
Data set [5] can be described thus: Aqueous solubility in water. The class given is physicochemical.
For data set [6], the target named is T1, Hematopoietic prostaglandin D synthase. The data set is described as follows: Inhibition of hematopoietic prostaglandin D2 synthase in IgE and IL-5 primed human LAD2 cells assessed as reduction in PGD2 production by mass spectrometry. The class given is cell-based.
Data set [7] shares this target. The data set is described as follows: Inhibition of human hematopoietic prostaglandin D2 synthase by rapid fire mass spectrometry assay.
The target is the same in data set [8]. The data set is described as follows: Inhibition of human hematopoietic prostaglandin D2 synthase at 30 uM by fluorescence polarisation assay. (In fluorescence polarisation assays a small probe gives low polarisation when free and higher when bound to something large.)
The next data set relates to Mus musculus. In words: Reduction in PGD2 level in C57/BL6/J mouse peritoneal lavage supernatants at 30 mg/kg, po measured 40 mins after compound 48/80 injection by enzyme immunoassay pre-treated 30 mins before compound 48/80 injection. Format: functional, organism-based. More on the design: dose 30 mg/kg.
Data set [9] in a line: Protein binding in rat whole blood at 1 mg/kg, iv or 3 mg/kg, po by LC-MS/MS method. The class given is ADME, organism-based. To be noted: read-out: PB (converted).
The target of data set [10] is T1, Hematopoietic prostaglandin D synthase. The data set is described as follows: Inhibition of human hematopoietic prostaglandin D2 synthase at 10 nM by fluorescence polarisation assay.
Data set [11] can be described thus: Tmax in rat at 3 mg/kg, po by LC-MS/MS method. More on the design: dose 3 mg/kg, route oral. Format: ADME, organism-based. To be noted: in vivo.
Data set [12] is described as follows: Cmax in rat at 3 mg/kg, po by LC-MS/MS method. The class given is ADME, organism-based. More on the design: dose 3 mg/kg, route oral. To be noted: in vivo.
The nature of data set [13]: Oral bioavailability in rat at 3 mg/kg by LC-MS/MS method. To be noted: in vivo. Format: ADME, organism-based.
Data set [14] in a line: Blood clearance in rat at 1 mg/kg, iv or 3 mg/kg, po by LC-MS/MS method. Format: ADME, organism-based.
Data set [15] is described as follows: Half life in rat at 1 mg/kg, iv or 3 mg/kg, po by LC-MS/MS method. The class given is ADME, organism-based. To be noted: in vivo.
A short description of data set [16]: Fraction unbound in rat at 1 mg/kg, iv or 3 mg/kg, po by LC-MS/MS method. To be noted: in vivo. The class given is ADME, organism-based.
Data set [17] is described as follows: AUC (0 to infinity) in rat at 1 mg/kg, iv or 3 mg/kg, po by LC-MS/MS method. The class given is ADME, organism-based. To be noted: plasma.
The subject of another data set is Rattus norvegicus. The data set is described as follows: fCmax in rat at 3 mg/kg, po by LC-MS/MS method. To be noted: in vivo. Also on record: dose 3 mg/kg, route oral. The class given is ADME, organism-based.
Data set [18] can be described thus: Volume of distribution at steady state in rat at 1 mg/kg, iv or 3 mg/kg, po by LC-MS/MS method. Format: ADME, organism-based. To be noted: in vivo, read-out: Vdss.
The target in data set [19] is T1, Hematopoietic prostaglandin D synthase. In words: Inhibition of human hematopoietic prostaglandin D2 synthase at 100 uM by fluorescence polarisation assay.

T1 sequence (O60760 whole entry): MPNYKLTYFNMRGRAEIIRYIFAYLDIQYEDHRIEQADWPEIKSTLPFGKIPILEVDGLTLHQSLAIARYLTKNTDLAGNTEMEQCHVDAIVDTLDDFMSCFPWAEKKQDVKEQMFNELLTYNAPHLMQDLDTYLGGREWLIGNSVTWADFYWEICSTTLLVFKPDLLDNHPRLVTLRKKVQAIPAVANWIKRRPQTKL

In the case of `c1nc(NC2CCCC2)c2cc[nH]c2n1`, the IC50 (commonly the concentration that gives 50% inhibition) in data set [1] was 500 nM.
Take `Cc1cn(NC(=O)c2cnc(-c3ccccn3)nc2)c2ccc(F)cc12`: the solubility (as a rule, how much of the substance goes into solution per volume) in data set [2] is under 1 µg/mL; in [3], 203 µg/mL (≈ 584 µM); in data set [4], 4.6 µg/mL (≈ 13.2 µM); in data set [5], 4.4 µg/mL (≈ 12.7 µM).
In the case of `CCNC(=O)N1Cc2cc(-c3c[nH]nc3C3CC3)cnc2C1`, the IC50 in data set [1] came out at 40 nM; in [6], 4000 nM; in data set [7] it was 501 nM.
The molecule `c1cncc(-c2c[nH]nc2C2CC2)c1` showed an IC50 in data set [1] of 17000 nM.
`Cc1n[nH]cc1-c1ccc(C#N)cc1`: in data set [8], the inhibition (as a rule, the relative decrease from the control value, in per cent) is 52%.
`c1nc(NC2CCCC2)c2cn[nH]c2n1`: half-maximal inhibition in data set [1] (IC50) required 8500 nM.
In the case of `Cn1nnnc1N1CCC(NC(=O)c2ccc(-c3cccc(F)c3)nc2)CC1`, the solubility is 44 µg/mL (≈ 115 µM) in data set [2], 48.9 µg/mL (≈ 128 µM) in [3], 31.2 µg/mL (≈ 81.8 µM) in data set [4] and 16.5 µg/mL (≈ 43.3 µM) in data set [5].
As to `O=C(NC1CCCC1)N1Cc2cc(-c3c[nH]nc3C3CC3)cnc2C1`, the solubility in data set [2] is 136 µg/mL (≈ 403 µM); in data set [3], 885 µg/mL (≈ 2620 µM); in data set [4], 109 µg/mL (≈ 323 µM); in [5], 52 µg/mL (≈ 154 µM). For the same molecule, the IC50 is under 10 nM in data set [1], 317 nM in data set [6] and 40 nM in [7]. The result in the data set with Mus musculus was Active. Besides, the fraction unbound in data set [9] and in data set [16] was 0.055 each time. The molecule also showed an inhibition in [10] of 66%. Moreover, the Tmax – broadly, the time at which the peak concentration occurs – in [11] was 0.5 h. In addition, in data set [12], the Cmax (usually the peak of the concentration-time curve) worked out at 196 ng/mL. In data set [13], the bioavailability (in general, dose-corrected exposure relative to a reference, in per cent) stood at 19%. The clearance in [14] was 33 mL/min/kg. For the same molecule, the half-life (usually the time needed for the level to fall by half in the phase considered) in [15] was 2.2 h. For the same molecule, the AUC(0-inf) – broadly, the area under the concentration-time curve extrapolated to infinity – in data set [17] worked out at 295 ng·h/mL. This molecule also had a fCmax in the data set on Rattus norvegicus of 30 nM. Moreover, the Vd in data set [18] worked out at 2.8 L/kg.
In data set [19], `c1cncc(-c2cn[nH]c2)c1` had an inhibition of 58%.
